Reference: article PMC11303640, “ALK5/VEGFR2 dual inhibitor TU2218 alone or in combination with immune checkpoint inhibitors enhances immune-mediated antitumor effects” (Cancer Immunology, Immunotherapy : CII, 2024)

Molecular target: T1, VEGFR2 (Homo sapiens, UniProt P35968)
T1 construct: gene KDR
Test: kinase enzyme assay (Reaction Biology), 10-point dose response, […] ATP
Type: biochemical

T1 sequence (P35968 20-1356): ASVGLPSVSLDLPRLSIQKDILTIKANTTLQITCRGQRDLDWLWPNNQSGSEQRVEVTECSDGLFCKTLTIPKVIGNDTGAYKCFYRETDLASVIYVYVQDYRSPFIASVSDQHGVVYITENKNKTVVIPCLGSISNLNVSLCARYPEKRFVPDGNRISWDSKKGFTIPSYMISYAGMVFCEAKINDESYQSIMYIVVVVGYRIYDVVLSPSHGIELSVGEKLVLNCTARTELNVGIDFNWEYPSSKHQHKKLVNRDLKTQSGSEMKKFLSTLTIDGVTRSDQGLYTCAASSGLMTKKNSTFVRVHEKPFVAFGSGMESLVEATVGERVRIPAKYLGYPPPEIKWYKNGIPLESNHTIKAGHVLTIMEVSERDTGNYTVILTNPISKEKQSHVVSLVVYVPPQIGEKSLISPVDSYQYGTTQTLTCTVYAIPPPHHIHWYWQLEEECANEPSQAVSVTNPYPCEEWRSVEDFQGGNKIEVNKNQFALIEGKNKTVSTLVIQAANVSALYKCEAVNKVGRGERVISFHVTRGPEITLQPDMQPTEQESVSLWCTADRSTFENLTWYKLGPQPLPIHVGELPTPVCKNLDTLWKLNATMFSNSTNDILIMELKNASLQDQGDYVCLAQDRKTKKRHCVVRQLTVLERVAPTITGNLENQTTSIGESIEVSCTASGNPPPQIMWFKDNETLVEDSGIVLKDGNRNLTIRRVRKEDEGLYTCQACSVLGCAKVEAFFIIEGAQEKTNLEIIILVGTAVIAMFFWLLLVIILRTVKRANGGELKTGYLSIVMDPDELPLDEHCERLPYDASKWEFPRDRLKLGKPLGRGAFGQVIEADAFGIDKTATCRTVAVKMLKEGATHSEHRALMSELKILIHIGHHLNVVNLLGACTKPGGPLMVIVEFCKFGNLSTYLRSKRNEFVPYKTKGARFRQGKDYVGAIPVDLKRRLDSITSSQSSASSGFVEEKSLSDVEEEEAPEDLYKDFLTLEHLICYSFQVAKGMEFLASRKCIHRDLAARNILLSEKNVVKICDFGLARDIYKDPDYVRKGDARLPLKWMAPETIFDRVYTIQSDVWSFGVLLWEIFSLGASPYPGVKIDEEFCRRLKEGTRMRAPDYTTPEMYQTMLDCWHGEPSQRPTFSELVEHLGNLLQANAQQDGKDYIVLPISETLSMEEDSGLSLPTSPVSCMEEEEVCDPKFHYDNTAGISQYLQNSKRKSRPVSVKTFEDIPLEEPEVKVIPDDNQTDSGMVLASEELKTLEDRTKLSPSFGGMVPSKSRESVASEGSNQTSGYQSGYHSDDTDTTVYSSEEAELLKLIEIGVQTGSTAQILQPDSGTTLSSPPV

Cc1cccc(-c2nc3n(c2-c2ccc4ncnn4c2)CCN3)n1 [TU2218]
IC50: 4.9 nM
